Molecular target: T1, AA (Homo sapiens, UniProt O14965)
T1 sequence (O14965 1-403): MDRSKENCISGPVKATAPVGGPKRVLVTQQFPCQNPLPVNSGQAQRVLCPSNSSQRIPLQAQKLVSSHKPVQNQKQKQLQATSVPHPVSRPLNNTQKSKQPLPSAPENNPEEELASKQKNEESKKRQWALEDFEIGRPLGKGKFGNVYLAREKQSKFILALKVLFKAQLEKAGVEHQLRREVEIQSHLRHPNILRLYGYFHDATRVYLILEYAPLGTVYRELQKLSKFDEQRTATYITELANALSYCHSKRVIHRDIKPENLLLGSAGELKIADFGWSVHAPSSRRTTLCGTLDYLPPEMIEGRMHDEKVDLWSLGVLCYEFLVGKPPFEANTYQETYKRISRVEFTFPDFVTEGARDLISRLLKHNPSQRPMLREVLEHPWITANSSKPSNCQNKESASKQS
Assay: AA IC50 (Table 1; no method given)
Assay type: biochemical
Settings: Table 2, AurA IC50; class symbols; read-out: AurA IC50

| SMILES | IC50 [nM] |
| --- | --- |
| CN1C(=O)CCN(C(C)(C)C)c2nc(Nc3ccc4c(c3)CS(=O)(=O)C4)ncc21 [compound 121, 9-tert-Butyl-2-(2,2-dioxo-2,3-dihydro-1H-2lambda*6*-benzo[c]thiophen-5-ylamino)-5-methyl-5,7,8,9-tetrahydro-pyrimido[4,5-b][1,4]diazepin-6-one] | < 1000 |
| CCN1C(=O)CCN(C(C)(C)C)c2nc(Nc3ccc4c(c3)CS(=O)(=O)C4)ncc21 [compound 122, 9-tert-Butyl-2-(2,2-dioxo-2,3-dihydro-1H-2lambda*6*-benzo[c]thiophen-5-ylamino)-5-ethyl-5,7,8,9-tetrahydro-pyrimido[4,5-b][1,4]diazepin-6-one] | < 1000 |
| CCN1C(=O)CCNc2nc(Nc3ccc4c(c3)CS(=O)(=O)C4)ncc21 [compound 126, 2-(2,2-Dioxo-2,3-dihydro-1H-2lambda*6*- benzo[c]thiophen-5-ylamino)-5-ethyl-5,7,8,9-tetrahydro-pyrimido[4,5-b][1,4]diazepin-6-one] | < 10000 |
| COc1ccccc1N1CCC(=O)N(C)c2cnc(Nc3ccc4c(c3)CS(=O)(=O)C4)nc21 [compound 133, 2-(2,2-Dioxo-2,3-dihydro-1H-2lambda*6*- benzo[c]thiophen-5-ylamino)-9-(2-methoxy-phenyl)-5-methyl-5,7,8,9-tetrahydro-pyrimido[4,5-b][1,4]diazepin-6-one] | < 1000 |
| Cc1ccccc1N1CCC(=O)N(C)c2cnc(Nc3ccc4c(c3)CS(=O)(=O)C4)nc21 [compound 134, 2-(2,2-Dioxo-2,3-dihydro-1H-2lambda*6*- benzo[c]thiophen-5-ylamino)-5-methyl-9-o-tolyl-5,7,8,9-tetrahydro-pyrimido[4,5-b][1,4]diazepin-6-one] | < 1000 |
| CN1C(=O)CCN(c2ccccc2Cl)c2nc(Nc3ccc4c(c3)CS(=O)(=O)C4)ncc21 [compound 135, 9-(2-Chloro-phenyl)-2-(2,2-dioxo-2,3-dihydro-1H-2lambda*6*-benzo[c]thiophen-5-ylamino)-5-methyl-5,7,8,9-tetrahydro-pyrimido[4,5-b][1,4]diazepin-6-one] | < 1000 |
| COc1cccc(N2CCC(=O)N(C)c3cnc(Nc4ccc5c(c4)CS(=O)(=O)C5)nc32)c1 [compound 136, 2-(2,2-Dioxo-2,3-dihydro-1H-2lambda*6*- benzo[c]thiophen-5-ylamino)-9-(3-methoxy-phenyl)-5-methyl-5,7,8,9-tetrahydro-pyrimido[4,5-b][1,4]diazepin-6-one] | < 1000 |
| CC(Cc1c[nH]c2ccccc12)Nc1ncc2c(n1)N(C1CCCC1)CCC(=O)N2C (stereo not shown) [compound 175, 9-Cyclopentyl-2-[2-(1H-indo1-3-yl)-1-methyl-ethylamino]-5-methyl-5,7,8,9-tetrahydro-pyrimido[4,5-b][1,4]diazepin-6-one] | < 10000 |
| COc1ccc(N2CCN(c3ncc4c(n3)N(C3CCCC3)CCC(=O)N4C)CC2)cc1 [compound 213, 9-Cyclopentyl-2-[4-(4-methoxy-phenyl)-piperazin-1-yl]-5-methyl-5,7,8,9-tetrahydro-pyrimido[4,5-b][1,4]diazepin-6-one] | < 10000 |
| CC(=O)Nc1ccc(Nc2ncc3c(n2)N(C2CCCC2)CCC(=O)N3C)cc1C(F)(F)F [compound 286, N-[4-(9-Cyclopentyl-5-methyl-6-oxo-6,7,8,9-tetrahydro-5H-pyrimido[4,5-b][1,4]diazepin-2-ylamino)-2-trifluoromethyl-phenyl]-acetamide] | < 1000 |
| Cc1cc(Nc2ncc3c(n2)N(C2CCCC2)CCC(=O)N3C)ccc1N(S(C)(=O)=O)S(C)(=O)=O [compound 288] | < 100 |
| CN1C(=O)CCN(C2CCCC2)c2nc(Nc3ccc(S(=O)(=O)NC4CCS(=O)(=O)C4)cc3)ncc21 (stereo not shown) [compound 325, 4-(9-Cyclopentyl-5-methyl-6-oxo-6,7,8,9-tetrahydro-5H-pyrimido[4,5-b][1,4]diazepin-2-ylamino)-N-(1,1-dioxo-tetrahydro-1lambda*6*- thiophen-3-yl)-benzenesulfonamide] | < 1000 |
| COc1ccc(N2CCC(=O)N(C)c3cnc(Nc4ccc(NC(=O)C5CC5)c(C)c4)nc32)cc1 [compound 327, Cyclopropanecarboxylic acid {4-[9-(4-methoxy-phenyl)-5-methyl-6-oxo-6,7,8,9-tetrahydro-5H-pyrimido[4,5-b][1,4]diazepin-2-ylamino]-2-methyl-phenyl}-amide] | < 100 |
| CCN1C(=O)CCN(c2ccc(C)cc2)c2nc(Nc3ccc(NC(=O)C4CC4)c(C)c3)ncc21 [compound 328, Cyclopropanecarboxylic acid [4-(5-ethyl-6-oxo-9-p-tolyl-6,7,8,9-tetrahydro-5H-pyrimido[4,5-b][1,4]diazepin-2-ylamino)-2-methyl-phenyl]-amide] | < 10000 |
| Cc1cc(Nc2ncc3c(n2)N(c2c(F)cccc2F)CCC(=O)N3C)ccc1NC(=O)C1CC1 [compound 329, Cyclopropanecarboxylic acid {4-[9-(2,6-difluoro-phenyl)-5-methyl-6-oxo-6,7,8,9-tetrahydro-5H-pyrimido[4,5-b][1,4]diazepin-2-ylamino]-2-methyl-phenyl}amide] | < 1000 |
| CCN1C(=O)CCN(c2ccc(OC)cc2)c2nc(Nc3ccc(NC(=O)C4CC4)c(C)c3)ncc21 [compound 330, Cyclopropanecarboxylic acid {4-[5-ethyl-9-(4-methoxy-phenyl)-6-oxo-6,7,8,9-tetrahydro-5H-pyrimido[4,5-b][1,4]diazepin-2-ylamino]-2-methyl-phenyl}-amide] | < 10000 |
| CCN1C(=O)CCN(c2ccc(C)cc2)c2nc(Nc3ccc4c(c3)CS(=O)(=O)C4)ncc21 [compound 331, 2-(2,2-Dioxo-2,3-dihydro-1H-2lambda*6*- benzo[c]thiophen-5-ylamino)-5-ethyl-9-p-tolyl-5,7,8,9-tetrahydro-pyrimido[4,5-b][1,4]diazepin-6-one] | < 100 |
| COc1ccc(N2CCC(=O)N(C)c3cnc(Nc4ccc5c(c4)CS(=O)(=O)C5)nc32)cc1 [compound 332, 2-(2,2-Dioxo-2,3-dihydro-1H-2lambda*6*- benzo[c]thiophen-5-ylamino)-9-(4-methoxy-phenyl)-5-methyl-5,7,8,9-tetrahydro-pyrimido[4,5-b][1,4]diazepin-6-one] | < 100 |
| CCN1C(=O)CCN(c2ccc(OC)cc2)c2nc(Nc3ccc4c(c3)CS(=O)(=O)C4)ncc21 [compound 333, 2-(2,2-Dioxo-2,3-dihydro-1H-2lambda*6*- benzo[c]thiophen-5-ylamino)-5-ethyl-9-(4-methoxy-phenyl)-5,7,8,9-tetrahydro-pyrimido[4,5-b][1,4]diazepin-6-one] | < 100 |
| CN1C(=O)CCN(c2ccc(C(C)(C)C)cc2)c2nc(Nc3ccc4c(c3)CS(=O)(=O)C4)ncc21 [compound 334, 9-(4-tert-Butyl-phenyl)-2-(2,2-dioxo-2,3-dihydro-1H-2lambda*6*-benzo[c]thiophen-5-ylamino)-5-methyl-5,7,8,9-tetrahydro-pyrimido[4,5-b][1,4]diazepin-6-one] | < 10000 |
| CCN1C(=O)CCN(c2ccc(C(C)(C)C)cc2)c2nc(Nc3ccc4c(c3)CS(=O)(=O)C4)ncc21 [compound 335, 9-(4-tert-Butyl-phenyl)-2-(2,2-dioxo-2,3-dihydro-1H-2lambda*6*-benzo[c]thiophen-5-ylamino)-5-ethyl-5,7,8,9-tetrahydro-pyrimido[4,5-b][1,4]diazepin-6-one] | < 10000 |
| CN1C(=O)CCN(c2ccc(N3CCOCC3)cc2)c2nc(Nc3ccc4c(c3)CS(=O)(=O)C4)ncc21 [compound 336, 2-(2,2-Dioxo-2,3-dihydro-1H-2lambda*6*- benzo[c]thiophen-5-ylamino)-5-methyl-9-(4-morpholin-4-yl-phenyl)-5,7,8,9-tetrahydro-pyrimido[4,5-b][1,4]diazepin-6-one] | < 100 |
| Cc1cc(Nc2ncc3c(n2)N(c2ccc(N4CCOCC4)cc2)CCC(=O)N3C)ccc1NC(=O)C1CC1 [compound 337] | < 100 |
| CCN1C(=O)CCN(c2ccc(N3CCOCC3)cc2)c2nc(Nc3ccc4c(c3)CS(=O)(=O)C4)ncc21 [compound 338, 2-(2,2-Dioxo-2,3-dihydro-1H-2lambda*6*- benzo[c]thiophen-5-ylamino)-5-ethyl-9-(4-morpholin-4-yl-phenyl)-5,7,8,9-tetrahydro-pyrimido[4,5-b][1,4]diazepin-6-one] | < 1000 |
| CN1C(=O)CCN(c2c(F)cccc2F)c2nc(Nc3ccc4c(c3)CS(=O)(=O)C4)ncc21 [compound 339, 9-(2,6-Difluoro-phenyl)-2-(2,2-dioxo-2,3-dihydro-1H-2lambda*6*-benzo[c]thiophen-5-ylamino)-5-methyl-5,7,8,9-tetrahydro-pyrimido[4,5-b][1,4]diazepin-6-one] | < 100 |
| CCN1C(=O)CCN(c2c(F)cccc2F)c2nc(Nc3ccc4c(c3)CS(=O)(=O)C4)ncc21 [compound 340, 9-(2,6-Difluoro-phenyl)-2-(2,2-dioxo-2,3-dihydro-1H-2lambda*6*-benzo[c]thiophen-5-ylamino)-5-ethyl-5,7,8,9-tetrahydro-pyrimido[4,5-b][1,4]diazepin-6-one] | < 1000 |
| Cc1cc(Nc2ncc3c(n2)N(c2ccc(C(C)(C)C)cc2)CCC(=O)N3C)ccc1NC(=O)C1CC1 [compound 342] | < 10000 |
| COc1ccc(N2CCC(=O)N(C)c3cnc(Nc4ccc(S(=O)(=O)NC(C)=O)cc4)nc32)cc1 [compound 350, N-Acetyl-4-[9-(4-methoxy-phenyl)-5-methyl-6-oxo-6,7,8,9-tetrahydro-5H-pyrimido[4,5-b][1,4]diazepin-2-ylamino]-benzenesulfonamide] | < 1000 |

Reference: patent publication US8563542B2 (Cyclacel Limited, priority 2007, dated 2013)
